Results published in patent US11807625B2, “Capsid inhibitors for the prevention of HIV” (Gilead Sciences, Inc., priority 2019, dated 2023).
Read-outs that look alike come from different tables or passages of the source.

Experiment: PK of compound of Formula (Ia) after single subcutaneous dose of solution formulations in beagle dogs
Type: in vivo
Conditions: male, beagle, dog, plasma, sc, 12 mg/kg; for AUC(0-t): male beagle dogs, single SC 12 mg/kg, mean ± SD, n = 3
Protocol: Formulations containing the compound of Formula (Ia), or a pharmaceutically acceptable salt thereof, were prepared as solutions and optionally administered subcutaneously or intramuscularly to rats, rabbits, and/or dogs.
A solution of about 400 mg/mL of the compound of Formula (Ia) having 17.00 w/w % water, 36.40 w/w % PEG 300, 35.20 w/w % of a sodium salt of a compound of Formula (Ia), 5.00 w/w % ethanol, and 6.40 w/w % poloxamer 188 was prepared. The solution was administered subcutaneously to male beagle dogs at a dose level of about 12 mg/kg and male Wistar Han rats at a dose level of about 50 mg/kg. The pharmacokinetic profiles were determined, and the results for dogs are summarized in Table and Table, while the results for rats are summarized in Table and Table below.
A solution of about 500 mg/mL of the compound of Formula (Ia) having 14.06 w/w % water, 30.12 w/w % PEG 300, […] of a sodium salt of a compound of Formula (Ia), 5.00 w/w % ethanol, and 6.40 w/w % poloxamer 188 was prepared. The solution was administered subcutaneously to male beagle dogs at a dose level of about 12 mg/kg and male Wistar Han rats at a dose level of about 50 mg/kg. The pharmacokinetic profiles were determined, and the results for dogs are summarized in Table and Table, while the results for rats are summarized in Table and Table below.
A solution of about 300 mg/mL of the compound of Formula (Ia) having 23.33 w/w % water, 48.99 w/w % PEG 300, 26.47 w/w % of a sodium salt of a compound of Formula (Ia), and 1.21 w/w % poloxamer 188 was prepared. The solution was administered subcutaneously to male beagle dogs at a dose level of about 6 mg/kg and male Wistar Han rats at a dose level of about 50 mg/kg. The pharmacokinetic profiles were determined, and the results for dogs are summarized in Table and Table, while the results for rats are summarized in Table and Table below.
A solution of about 400 mg/mL of the compound of Formula (Ia) having 18.80 w/w % water, 40.25 w/w % PEG 300, 34.38 w/w % of a sodium salt of a compound of Formula (Ia), 5.00 w/w % ethanol, and 1.57 w/w % poloxamer 188 was prepared. The solution was administered subcutaneously to male beagle dogs at a dose level of about 12 mg/kg and male Wistar Han rats at a dose level of about 50 mg/kg. The pharmacokinetic profiles were determined, and the results for dogs are summarized in Table and Table, while the results for rats are summarized in Table and Table below.
A solution of about 500 mg/mL of the compound of Formula (Ia) having 16.29 w/w % water, 34.88 w/w % PEG 300, 41.92 w/w % of a sodium salt of a compound of Formula (Ia), 5.00 w/w % ethanol, and 1.91 w/w % poloxamer 188 was prepared. The solution was administered subcutaneously to male beagle dogs at a dose level of about 12 mg/kg and male Wistar Han rats at a dose level of about 50 mg/kg. The pharmacokinetic profiles were determined, and the results for dogs are summarized in Table and Table, while the results for rats are summarized in Table and Table below.
A solution of about 400 mg/mL of the compound of Formula (Ia) having 20.90 w/w % water, 44.72 w/w % PEG 300, and 34.38 w/w % of a sodium salt of a compound of Formula (Ia) was prepared. The solution was administered subcutaneously to male beagle dogs at a dose level of about 12 mg/kg and male Wistar Han rats at a dose level of about 50 mg/kg. The pharmacokinetic profiles were determined, and the results for dogs are summarized in Table and Table, while the results for rats are summarized in Table and Table below.
A solution of about 400 mg/mL of the compound of Formula (Ia) having 19.90 w/w % water, 42.59 w/w % PEG 300, 34.38 w/w % of a sodium salt of a compound of Formula (Ia), and 3.13 w/w % poloxamer 188 was prepared. The solution was administered subcutaneously to male beagle dogs at a dose level of about 12 mg/kg and male Wistar Han rats at a dose level of about 50 mg/kg. […]

[1] = beagle dogs, SC 12 mg/kg, 500 mg/mL solution X (5.00% ethanol, 1.91% poloxamer 188), Mean n = 3
[2] = beagle dogs, SC 12 mg/kg, 500 mg/mL solution X (5.00% ethanol, 1.91% poloxamer 188), animals #1-#3

CC(C)(C#Cc1ccc(-c2ccc(Cl)c3c(NS(C)(=O)=O)nn(CC(F)(F)F)c23)c([C@H](Cc2cc(F)cc(F)c2)NC(=O)Cn2nc(C(F)(F)F)c3c2C(F)(F)[C@@H]2C[C@H]32)n1)S(C)(=O)=O [compound of Formula (Ia)]
concentration at 24 h [1]: 39.7 nM | concentration at 24 h [2]: 32.8 nM | concentration at 48 h [1]: 44.7 nM | concentration at 48 h [2]: 39.8 nM | concentration at 72 h (beagle dogs, SC 12 mg/kg, 500 mg/mL solution X (5.00% ethanol, 1.91% poloxamer 188), 72.0 h, Mean n = 3): 36.5 nM | concentration at 96 h (beagle dogs, SC 12 mg/kg, 500 mg/mL solution X (5.00% ethanol, 1.91% poloxamer 188), 96.0 h, Mean n = 3): 31.4 nM | concentration at 168 h (beagle dogs, SC 12 mg/kg, 500 mg/mL solution X (5.00% ethanol, 1.91% poloxamer 188), 168 h, Mean n = 3): 39.2 nM | concentration at 336 h (beagle dogs, SC 12 mg/kg, 500 mg/mL solution X (5.00% ethanol, 1.91% poloxamer 188), 336 h, Mean n = 3): 50.3 nM | concentration at 504 h (beagle dogs, SC 12 mg/kg, 500 mg/mL solution X (5.00% ethanol, 1.91% poloxamer 188), 504 h, Mean n = 3): 114 nM | concentration at 672 h (beagle dogs, SC 12 mg/kg, 500 mg/mL solution X (5.00% ethanol, 1.91% poloxamer 188), 672 h, Mean n = 3): 110 nM | concentration at 840 h (beagle dogs, SC 12 mg/kg, 500 mg/mL solution X (5.00% ethanol, 1.91% poloxamer 188), 840 h, Mean n = 3): 61.4 nM | concentration at 1008 h (beagle dogs, SC 12 mg/kg, 500 mg/mL solution X (5.00% ethanol, 1.91% poloxamer 188), 1008 h, Mean n = 3): 68.3 nM | concentration at 1344 h (beagle dogs, SC 12 mg/kg, 500 mg/mL solution X (5.00% ethanol, 1.91% poloxamer 188), 1344 h, Mean n = 3): 48.5 nM | concentration at 1680 h (beagle dogs, SC 12 mg/kg, 500 mg/mL solution X (5.00% ethanol, 1.91% poloxamer 188), 1680 h, Mean n = 3): 37.7 nM | concentration at 2016 h (beagle dogs, SC 12 mg/kg, 500 mg/mL solution X (5.00% ethanol, 1.91% poloxamer 188), 2016 h, Mean n = 3): 23.4 nM | concentration at 2352 h (beagle dogs, SC 12 mg/kg, 500 mg/mL solution X (5.00% ethanol, 1.91% poloxamer 188), 2352 h, Mean n = 3): 24.3 nM | concentration at 2688 h (beagle dogs, SC 12 mg/kg, 500 mg/mL solution X (5.00% ethanol, 1.91% poloxamer 188), 2688 h, Mean n = 3): 14.6 nM | concentration at 3024 h (beagle dogs, SC 12 mg/kg, 500 mg/mL solution X (5.00% ethanol, 1.91% poloxamer 188), 3024 h, Mean n = 3): 14.6 nM | concentration at 3360 h (beagle dogs, SC 12 mg/kg, 500 mg/mL solution X (5.00% ethanol, 1.91% poloxamer 188), 3360 h, Mean n = 3): 9.6 nM | concentration at 3696 h (beagle dogs, SC 12 mg/kg, 500 mg/mL solution X (5.00% ethanol, 1.91% poloxamer 188), 3696 h, Mean n = 3): 8.6 nM | concentration at 4032 h (beagle dogs, SC 12 mg/kg, 500 mg/mL solution X (5.00% ethanol, 1.91% poloxamer 188), 4032 h, Mean n = 3): 8.3 nM | concentration at 4368 h (beagle dogs, SC 12 mg/kg, 500 mg/mL solution X (5.00% ethanol, 1.91% poloxamer 188), 4368 h, Mean n = 3): 6.4 nM | AUC(0-t) (400 mg/mL solution AA (6.25% poloxamer 188), read-out: AUC0-24 h): 1.57 ± 0.56 µM·h | AUC(0-t) (400 mg/mL solution AA (6.25% poloxamer 188), read-out: AUC0-168 h): 22.2 ± 7 µM·h | AUC(0-t) (400 mg/mL solution AA (6.25% poloxamer 188), read-out: AUC0-336 h): 46.3 ± 9.4 µM·h | AUC(0-t) (400 mg/mL solution AA (6.25% poloxamer 188), read-out: AUC0-672 h): 108 ± 26 µM·h | AUC(0-t) (400 mg/mL solution AA (6.25% poloxamer 188), read-out: AUC0-1008 h): 149 ± 31 µM·h | AUC(0-t) (400 mg/mL solution AA (6.25% poloxamer 188), read-out: AUC0-1344 h): 171 ± 33 µM·h | AUC(0-t) (400 mg/mL solution AA (6.25% poloxamer 188), read-out: AUC0-2352 h): 195 ± 35 µM·h | AUC(0-t) (400 mg/mL solution AA (6.25% poloxamer 188), read-out: AUC0-3024 h): 200 ± 35 µM·h | AUC(0-t) (400 mg/mL solution AA (6.25% poloxamer 188), read-out: AUC0-3696 h): 208 ± 47 µM·h | AUC(0-t) (400 mg/mL solution Y (water, PEG 300), read-out: AUC0-24 h): 0.996 ± 0.513 µM·h | AUC(0-t) (400 mg/mL solution Y (water, PEG 300), read-out: AUC0-168 h): 9.61 ± 2.6 µM·h | AUC(0-t) (400 mg/mL solution Y (water, PEG 300), read-out: AUC0-336 h): 27.4 ± 1.9 µM·h | AUC(0-t) (400 mg/mL solution Y (water, PEG 300), read-out: AUC0-672 h): 100 ± 7.2 µM·h | AUC(0-t) (400 mg/mL solution Y (water, PEG 300), read-out: AUC0-1008 h): 146 ± 11 µM·h | AUC(0-t) (400 mg/mL solution Y (water, PEG 300), read-out: AUC0-1344 h): 172 ± 16 µM·h | AUC(0-t) (400 mg/mL solution Y (water, PEG 300), read-out: AUC0-2352 h): 200 ± 19 µM·h | AUC(0-t) (400 mg/mL solution Y (water, PEG 300), read-out: AUC0-3024 h): 207 ± 19 µM·h | AUC(0-t) (400 mg/mL solution Y (water, PEG 300), read-out: AUC0-3696 h): 210 ± 18 µM·h | AUC(0-t) (400 mg/mL solution Z (3.13% poloxamer 188), read-out: AUC0-24 h): 1.02 ± 0.58 µM·h | AUC(0-t) (400 mg/mL solution Z (3.13% poloxamer 188), read-out: AUC0-168 h): 10.6 ± 4.9 µM·h | AUC(0-t) (400 mg/mL solution Z (3.13% poloxamer 188), read-out: AUC0-336 h): 30.1 ± 14.8 µM·h | AUC(0-t) (400 mg/mL solution Z (3.13% poloxamer 188), read-out: AUC0-672 h): 92.7 ± 31 µM·h | AUC(0-t) (400 mg/mL solution Z (3.13% poloxamer 188), read-out: AUC0-1008 h): 125 ± 31 µM·h | AUC(0-t) (400 mg/mL solution Z (3.13% poloxamer 188), read-out: AUC0-1344 h): 147 ± 32 µM·h | AUC(0-t) (400 mg/mL solution Z (3.13% poloxamer 188), read-out: AUC0-2352 h): 170 ± 33 µM·h
